Counter-ions that a name gives are not always drawn.

In data set [1] the test system is OGA in HEK293 cells inducible for P301L mutant human Tau (isoform 2N4R). The data set is described as follows: OGA cellular assay: immunocytochemical detection of O-GlcNAcylated proteins (CTD110.6 antibody) after 6 h incubation. The class given is cell-based. The following applies: Homo sapiens, HEK293, 6 h; for Emax: maximum = Thiamet G 200 uM; for EC50: read-out: Cellular hOGA, pEC50 (converted). The gist of the method: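 Low-glucose medium, 6 h compound exposure at 0.2% DMSO; cells PFA-fixed and O-GlcNAc ICC signal imaged at 488 nm (9 fields/well), Hoechst nuclei counted for toxicity. Thiamet G 200 uM on each plate as maximum; IC50 from non-linear regression.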

For data set [2], the target named is T1, recombinant human Meningioma Expressed Antigen 5 (MGEA5), also referred to as O-GlcNAcase (OGA) (Homo sapiens, UniProt O60502).
T1 construct: Full length OGA enzyme was purchased at OriGene (cat # TP322411); purchased OriGene TP322411
T1 sequence (O60502 1-916): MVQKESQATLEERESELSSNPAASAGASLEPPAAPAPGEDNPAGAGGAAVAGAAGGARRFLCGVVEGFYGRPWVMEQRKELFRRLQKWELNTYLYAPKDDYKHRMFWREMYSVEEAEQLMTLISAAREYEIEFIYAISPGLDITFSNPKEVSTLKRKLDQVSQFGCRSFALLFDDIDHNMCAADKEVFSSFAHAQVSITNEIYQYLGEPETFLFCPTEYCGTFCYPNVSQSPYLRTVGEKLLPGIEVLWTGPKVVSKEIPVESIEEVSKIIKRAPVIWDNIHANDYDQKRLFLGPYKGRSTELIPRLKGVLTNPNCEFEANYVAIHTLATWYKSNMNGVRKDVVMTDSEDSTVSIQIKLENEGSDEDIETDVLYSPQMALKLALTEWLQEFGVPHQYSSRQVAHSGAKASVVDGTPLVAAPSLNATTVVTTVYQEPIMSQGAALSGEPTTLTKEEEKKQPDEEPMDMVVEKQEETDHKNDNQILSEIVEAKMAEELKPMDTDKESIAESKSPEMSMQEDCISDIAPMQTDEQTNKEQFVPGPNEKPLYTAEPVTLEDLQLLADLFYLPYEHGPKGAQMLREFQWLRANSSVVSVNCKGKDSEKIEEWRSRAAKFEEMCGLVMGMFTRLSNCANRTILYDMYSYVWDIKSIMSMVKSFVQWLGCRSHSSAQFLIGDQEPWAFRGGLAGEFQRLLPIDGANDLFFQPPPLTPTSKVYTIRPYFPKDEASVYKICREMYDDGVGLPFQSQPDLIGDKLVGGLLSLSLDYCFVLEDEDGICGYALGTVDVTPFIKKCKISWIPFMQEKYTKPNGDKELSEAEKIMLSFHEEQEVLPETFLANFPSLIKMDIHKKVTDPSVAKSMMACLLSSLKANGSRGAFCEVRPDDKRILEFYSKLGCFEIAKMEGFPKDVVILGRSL
Kind of data set: OGA biochemical assay: inhibition of FM-GlcNAc hydrolysis, fluorescence; protocol A (10 nM OGA, 1 h) or protocol B (2 nM OGA, 6 h). The settings on record: Enzymatic protocol B (2 nM OGA, 6 h); for IC50: read-out: Enzymatic hOGA, pIC50 (converted). The gist of the method:
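Full-length human OGA in 200 mM citrate/phosphate pH 7.2 with 0.005% Tween-20, compound pre-incubated 60 min at RT, then 100 uM FM-GlcNAc (final); 10 nM enzyme for 1 h or 2 nM for 6 h at RT. Stopped with pH 11.0 carbonate; fluorescein read at ex 485/em 538 nm. IC50 and Hill coefficient from curve fit.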

One may read the melting point as the temperature of the solid-liquid transition. For the compound `Cc1cc(CC2CCCN(C(C)c3ccc4c(c3)OCCO4)C2)cc(C)n1` (racemic) (as salt: HCl) [compound 142], the melting point is 256.05 °C.
In turn, `CC(=O)Nc1ncc(CN2CCC(OCc3cc(C)nc(C)c3)C2)s1` (racemic) [Product 81] yielded a melting point of 118.26 °C.
On the same count and under the same terms, the same measure for `CC(=O)Nc1ncc(CN2CCC(COc3cc(C)nc(C)c3)C2)s1` (racemic) [Product 89]: 125.9 °C.
Regarding `CC(=O)Nc1ncc(CN2CCC(Cc3cncnc3C)C2)s1` (racemic) [Product 103], the melting point was found to be 147.16 °C.
Take `Cc1cc(CC2CCCN(C(C)c3ccc4sc(C)nc4c3)C2)cc(C)n1` (single isomer, unassigned) (as salt: HCl) [compound 118]: the melting point is 270.1 °C.
`CC(=O)Nc1ncc(CN2CCC(Cc3cc(F)ncc3C)C2)s1` (stereo not drawn) [Product 106] returned a melting point of 140.36 °C.
The term Emax denotes the greatest response seen or fitted, relative to the assay's reference. Compound `CC(=O)Nc1ncc(CN2CCC(Cc3ccc(C)c(C)n3)C2)s1` (stereo not drawn) [compound 38] registered a melting point of 107.53 °C. Further, in data set [1], the maximum response (Emax) worked out at 90.3% and the EC50 is 39.8 nM. Also, in data set [2], the maximal response (Emax) turned out to be 99.7% and the IC50 is 19.5 nM.
Take `CC(=O)Nc1ncc(CN2CCC(Cc3ncccc3F)C2)s1` (stereo not drawn) [compound 39]: the melting point worked out at 150.08 °C. Also, in data set [2], the Emax was 99.2% and the IC50 was 60.3 nM.
`CC(=O)Nc1ncc(CN2CCC(Cc3nccc(C)c3F)C2)s1` (stereo not drawn) [compound 43] gave a melting point of 129.25 °C. Besides, in data set [1], the Emax was found to be 87% and the EC50 is 79.4 nM. Moreover, in data set [2], the Emax turned out to be 102% and the IC50 is 9.12 nM.
On to `CC(=O)Nc1ncc(CN2CCC(Cc3cnc(C(N)=O)cn3)C2)s1` (stereo not drawn) [compound 105], for which, in data set [1], the Emax turned out to be 93.3% and the EC50 is 100 nM. In data set [2], the Emax was found to be 102% and the IC50 was 19.5 nM.
On to `CC(=O)Nc1ncc(CN2CCC(Cc3cc(F)ncc3C)C2)s1` (stereo not drawn) [compound 106], for which, in data set [1], the Emax came out at 86.9% and the EC50 was 41.7 nM. For the same compound, in data set [2], the Emax was found to be 101% and the IC50 was 21.4 nM.
Compound `CC(=O)Nc1ncc(CN2CCC(Cc3ccc(F)c(C)n3)C2)s1` (stereo not drawn) [compound 107] came in with a melting point of 173.68 °C. Besides, in data set [1], the Emax was determined as 82% and the EC50 is 138 nM. In addition, in data set [2], the Emax was 102% and the IC50 was 40.7 nM.
The compound `CC(=O)Nc1ncc(CN2CCC(Cc3cncc(C)n3)C2)s1` (stereo not drawn) [compound 108] registered a melting point of 118.3 °C. Besides, in data set [1], the Emax turned out to be 78.9% and the EC50 is 155 nM. In addition, in data set [2], the Emax was 103% and the IC50 was 33.1 nM.
With `COc1nc(C)ccc1CC1CCN(Cc2cnc(NC(C)=O)s2)C1` (stereo not drawn) [compound 109], in data set [1], the Emax was determined as 115% and the EC50 is 52.5 nM. Besides, in data set [2], the Emax is 103% and the IC50 was 18.6 nM.
For `CC(=O)Nc1ncc(CN2CC[C@H](Cc3cc(C)nc(F)c3)C2)s1` [compound 110], in data set [1], the Emax came out at 91.3% and the EC50 was 24.5 nM. For the same compound, in data set [2], the Emax is 103% and the IC50 was 20 nM.
The corresponding values for `CC(=O)Nc1ncc(CN2CC[C@@H](Cc3cc(C)nc(F)c3)C2)s1` [compound 111] are 97.4%, 52.5 nM, 103% and 30.9 nM.
Take `CC(=O)Nc1ncc(CN2CC[C@H](Cc3cc(C)nc(C)c3)C2)s1` [compound 112]: in data set [1], the Emax turned out to be 118% and the EC50 is 17.8 nM. Moreover, in data set [2], the Emax stood at 102% and the IC50 is 4.57 nM.
Consider `CC(=O)Nc1ncc(CN2CC[C@@H](Cc3cc(C)nc(C)c3)C2)s1` [compound 113], for which, in data set [1], the Emax was 105% and the EC50 was 11.2 nM. In data set [2], the Emax was found to be 102% and the IC50 is 4.47 nM.
With `Cc1cc([C@H]2CCCN([C@@H](C)c3ccc4sc(C)nc4c3)C2)cc(C)n1` [compound 117], in data set [1], the Emax was found to be 99.5% and the EC50 was 97.7 nM. For the same compound, in data set [2], the Emax worked out at 102% and the IC50 is 12 nM.
For the compound `CC(=O)Nc1ncc(CN2CCC[C@H](Cc3ncc(F)cc3F)C2)s1` [compound 121], in data set [1], the Emax came out at 110% and the EC50 is 28.8 nM. Moreover, in data set [2], the Emax is 98.3% and the IC50 is 4.27 nM.
Regarding `CC(=O)Nc1ncc(CN2CCC[C@H](Cc3cc(F)ncc3C)C2)s1` [compound 122], in data set [1], the maximal effect (Emax) was 97.2% and the EC50 was 4.17 nM. In data set [2], the Emax worked out at 100% and the IC50 was 2.51 nM.
With `CC(=O)Nc1ncc(CN2CCC[C@H](Cc3cc(C)nc(F)c3)C2)s1` [compound 123], in data set [1], the maximal effect (Emax) was 90.5% and the EC50 was 9.77 nM. Also, in data set [2], the Emax is 99.2% and the IC50 is 2.75 nM.
The corresponding values for `COc1nc(C)ccc1C[C@H]1CCCN(Cc2cnc(NC(C)=O)s2)C1` [compound 126] are 97.5%, 11.5 nM, 100% and 1.38 nM.
For `CC(=O)Nc1ncc(CN2CCC[C@H](Cc3cncc(C)n3)C2)s1` [compound 127], in data set [1], the Emax was 88.5% and the EC50 is 27.5 nM. Moreover, in data set [2], the maximum response (Emax) came out at 102% and the IC50 is 2.88 nM.
Turning to `CC(=O)Nc1ncc(CN2CCC[C@H](Cc3nc(C)cnc3C)C2)s1` [compound 128], in data set [1], the Emax was 93.2% and the EC50 is 39.8 nM. Besides, in data set [2], the Emax is 102% and the IC50 was 1.82 nM.
With `CC(=O)Nc1ncc(CN2CCC[C@H](Cc3ccc(F)c(C)n3)C2)s1` [compound 129], in data set [1], the Emax stood at 101% and the EC50 is 20 nM. For the same compound, in data set [2], the Emax is 102% and the IC50 is 2.82 nM.
`CC(=O)Nc1ncc(CN2CCCC(COc3cc(C)nc(C)c3)C2)o1` (stereo not drawn) [compound 138]: in data set [1], the Emax stood at 74.2% and the EC50 was 437 nM. For the same compound, in data set [2], the Emax came to 102% and the IC50 was 53.7 nM.
In the case of `COc1cc(C[C@H]2CCN(Cc3cnc(NC(C)=O)s3)C2)cc(C(F)(F)F)n1` [compound 143], in data set [1], the Emax is 86.2% and the EC50 was 60.3 nM. Further, in data set [2], the Emax was 102% and the IC50 is 21.4 nM.
Turning to `Cc1cc(C2CCCN(C(C)c3ccc4nccnc4c3)C2)cc(C(F)(F)F)n1` (stereo not drawn) [compound 144], in data set [1], the maximum response (Emax) was 42.8% and the EC50 is above 1000 nM. Further, in data set [2], the Emax turned out to be 101% and the IC50 was 41.7 nM.
The like results for `Cc1cc(C[C@H]2CCCN(Cc3ccc4sc(C)nc4c3)C2)cc(C)n1` [compound 145] were, in that order, 39.4%, above 1000 nM, 101% and 126 nM.
With `Cc1cc(C[C@H]2CCCN(Cc3ccc4scnc4c3)C2)cc(C)n1` [compound 147], in data set [1], the Emax came out at 33.2% and the EC50 was above 1000 nM. Also, in data set [2], the Emax was 99% and the IC50 was 282 nM.
Turning to `Cc1cc(C[C@H]2CCCN(Cc3ccc4c(c3)OCCO4)C2)cc(C)n1` [compound 152], in data set [1], the Emax is 41.9% and the EC50 is above 1000 nM. Besides, in data set [2], the Emax was 102% and the IC50 is 102 nM.
The like results for `CC(=O)Nc1ncc(CN2CCC[C@@H](COc3cc(C)nc(C)c3)C2)s1` [compound 154] were, in that order, 116%, 38 nM, 103% and 15.1 nM.

The record behind these values is patent US20200079766A1, “MONOCYCLIC OGA INHIBITOR COMPOUNDS” (Janssen Pharmaceutica NV, priority 2016, published 2020).
